ChEMBL document CHEMBL5365550, “Targeting the Inhibition of B-Cell Lymphoma 2 Protein for the Treatment of Cancer” (ACS Med Chem Lett, 2023)

What was measured:
Bcl-2-like protein 1 = Bcl-2-like protein 1 (Homo sapiens, UniProt Q07817); test: Inhibition of human Bcl-xL expressed in Escherichia coli BL21(DE3) T1R cells preincubated under shaking condition for 1 min and measured after 3 hrs by TR-FRET assay
[1] = biological target: Apoptosis regulator Bcl-2 (Homo sapiens, UniProt P10415); test: Inhibition of human Bcl-2 expressed in Escherichia coli BL21(DE3) T1R cells preincubated under shaking condition for 1 min and measured after 3 hrs by TR-FRET assay
MOLT-4 = test: Cytotoxicity against human MOLT-4 cells assessed as reduction in cell viability by CellTiter-Glo assay; assay type: functional, cell-based
RS4-11 = test: Cytotoxicity against human RS4-11 cells assessed as reduction in cell viability by CellTiter-Glo assay; assay type: functional, cell-based

Apoptosis regulator Bcl-2, sequence (P10415 whole entry): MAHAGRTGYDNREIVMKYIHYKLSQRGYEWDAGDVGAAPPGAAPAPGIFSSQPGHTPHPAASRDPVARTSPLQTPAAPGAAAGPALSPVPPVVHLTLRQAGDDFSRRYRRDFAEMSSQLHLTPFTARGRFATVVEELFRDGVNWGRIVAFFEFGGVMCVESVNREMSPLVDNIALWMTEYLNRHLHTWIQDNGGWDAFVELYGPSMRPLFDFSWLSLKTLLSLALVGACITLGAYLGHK
Bcl-2-like protein 1, sequence (Q07817 whole entry): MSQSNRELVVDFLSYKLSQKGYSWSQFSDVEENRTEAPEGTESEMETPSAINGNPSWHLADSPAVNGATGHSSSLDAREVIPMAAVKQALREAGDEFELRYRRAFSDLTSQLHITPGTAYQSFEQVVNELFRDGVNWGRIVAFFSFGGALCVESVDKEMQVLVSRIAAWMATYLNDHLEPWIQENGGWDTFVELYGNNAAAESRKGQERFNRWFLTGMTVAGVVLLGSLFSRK

SMILES | Ki (Bcl-2-like protein 1) [nM] | Ki [1] [nM] | EC50 (MOLT-4) [nM] | EC50 (RS4-11) [nM]
CC1(C)CC(c2ccc(Cl)cc2)=C2CN3CCN(c4ccc(C(=O)NS(=O)(=O)c5ccc(NCC6(O)CCOCC6)c([N+](=O)[O-])c5)c(N5CCCOc6nc7[nH]ccc7cc65)c4)C[C@H]3COCCCO[C@@H]2C1 | 8.31 | 0.223 | 426 | 1.43
COCC1(F)CC(CNc2ccc(S(=O)(=O)NC(=O)c3ccc(N4CCN5CC6=C(c7ccc(Cl)cc7)CC(C)(C)C[C@H]6OCCCOC[C@@H]5C4)cc3N3CCCOc4nc5[nH]ccc5cc43)cc2[N+](=O)[O-])C1 (stereo partly drawn) | 25.8 | 0.28 | > 10000 | 10.9
COC1(CNc2ccc(S(=O)(=O)NC(=O)c3ccc(N4CCN5CC6=C(c7ccc(Cl)cc7)CC(C)(C)C[C@H]6OCCCOC[C@@H]5C4)cc3N3CCCOc4nc5[nH]ccc5cc43)cc2[N+](=O)[O-])CCOCC1 | 40.3 | 2.09 | > 10000 | 4.38
CO[C@H]1C[C@H](Nc2ccc(S(=O)(=O)NC(=O)c3ccc(N4CCN5CC6=C(c7ccc(Cl)cc7)CC(C)(C)C[C@H]6OCCCOC[C@@H]5C4)cc3N3CCCOc4nc5[nH]ccc5cc43)cc2[N+](=O)[O-])C1 | 39 | 2.58 | > 10000 | 4.1
CC1(C)CC(c2ccc(Cl)cc2)=C2CN3CCN(c4ccc(C(=O)NS(=O)(=O)c5ccc(NC[C@H]6CC[C@](C)(O)CO6)c([N+](=O)[O-])c5)c(N5CCCOc6nc7[nH]ccc7cc65)c4)C[C@H]3COCCCO[C@@H]2C1 | 9.3 | 0.049 | 1220 | 0.651
CC1(C)CC(c2ccc(Cl)cc2)=C2CN3CCN(c4ccc(C(=O)NS(=O)(=O)c5ccc(NC[C@H]6CC[C@H](O)CO6)c([N+](=O)[O-])c5)c(N5CCCOc6nc7[nH]ccc7cc65)c4)C[C@H]3COCCCO[C@@H]2C1 | – | – | 823 | 0.966
CC1(C)CC(c2ccc(Cl)cc2)=C2CN3CCN(c4ccc(C(=O)NS(=O)(=O)c5cnc(OCC6(F)CCOCC6)c(Cl)c5)c(N5CCCOc6nc7[nH]ccc7cc65)c4)C[C@H]3COCCCO[C@@H]2C1 | > 661 | – | > 10000 | 5.46
CC1(C)CC(c2ccc(Cl)cc2)=C2CN3CCN(c4ccc(C(=O)NS(=O)(=O)c5ccc(NC[C@H]6CC[C@@](C)(O)CC6)c([N+](=O)[O-])c5)c(N5CCCOc6nc7[nH]ccc7cc65)c4)C[C@H]3COCCCO[C@@H]2C1 | 11.1 | 0.061 | 117 | 1.47
CC1(C)CC(c2ccc(Cl)cc2)=C2CN3CCN(c4ccc(C(=O)NS(=O)(=O)c5ccc(NC[C@H]6CC[C@](C)(O)CC6)c(Cl)c5)c(N5CCCOc6nc7[nH]ccc7cc65)c4)C[C@H]3COCCCO[C@@H]2C1 | 29.7 | 0.085 | > 10000 | 17.7
CO[C@H]1CC[C@H](CNc2ccc(S(=O)(=O)NC(=O)c3ccc(N4CCN5CC6=C(c7ccc(Cl)cc7)CC(C)(C)C[C@H]6OCCCOC[C@@H]5C4)cc3N3CCCOc4nc5[nH]ccc5cc43)cc2[N+](=O)[O-])OC1 | – | – | 1700 | –
CC1(C)CC(c2ccc(Cl)cc2)=C2CN3CCN(c4ccc(C(=O)NS(=O)(=O)c5ccc(NC[C@H]6COCCO6)c([N+](=O)[O-])c5)c(N5CCCOc6nc7[nH]ccc7cc65)c4)C[C@H]3COCCCO[C@@H]2C1 | 5.76 | 0.034 | 1410 | 1.36
